Source: patent publication US7271158B2, “Treatment of rumen acidosis with α-amylase inhibitors” (Pfizer Inc., priority 2000, dated 2007)

Tests used:
[1] = test system: E. coli; test: Minimum inhibitory concentrations in aerobes (agar dilution); format: cell-based; details: Escherichia coli
[2] = test system: rumen fluid fermentation (RUSITEC chronic acidosis model); test: RUSITEC rumen simulation, chronic acidosis model: Example 8 and acarbose; format: cell-based, cow
Protocol: RUSITEC Result using Example 8 and Acarbose
Daily maintenance procedures as previously described for Acarbose.
Rumen fluid donor cow—Fed GH313Pellets plus barley straw.
Daily Feed—30 g GH313 pellets plus 2.5 g chopped barley straw.
Acarbose: 1 tablet added to each bag to give 100 mg/vessel/d
Example 8: Eight×57 mg pre-weighed samples stored in fridge in […]. On the day before the feed bags were to be placed in RUSITEC, a 57 mg sample was dissolved in 2.28 ml buffer (25 mg/ml). 0.21 ml of this solution was added to 1.9 ml buffer to give a 2.5 mg/ml solution. 1 ml of each solution was added to a prepared feed bag to give 25 and 2.5 mg/vessel/d. and dried overnight at room temperature.

[3] = test system: chronic rumen acidosis induced in fistulated cattle; test: In vivo testing in fistulated cattle (induced chronic rumen acidosis); parameters: species or system Hereford×Friesian steers; details: 4.0 g/trt through fistula
Text: In Vivo Testing in Fistulated Cattle Objective: To determine the effect of the agent for testing, in this case acarbose, on chronic rumen acidosis induced in fistulated cattle. A rumen pH profile representative of chronic acidosis was induced by stepwise increase in the level of concentrate feeding of a specified diet and a reduction in the roughage offered. This was followed by treatment of each animal with acarbose, administered via a permanent rumen fistula, to assess its ability to normalise rumen pH. Experimental Animals: Six fistulated Hereford×Friesian steers, weighing 170-230 kgs (supplied by […] Calves Ltd. […], Ceredigion) Treatment: Glucobay® 100. Acarbose 100 mgs per tablet. Management: The cattle were fed GH651 cattle high cereal beef pellets (variable amount) with barley straw (variable amount) divided over two equal feeds, given at around 08.00 hr and 14.30 hr each day. Precise feeding times were recorded. Water was available ad-lib. Cattle were individually housed in pens (9 square meters per pen) in a building environmentally controlled to 16° C. [table] While chronic acidosis was being induced, manual pH measurements were taken approximately 5 and 8 hours post-morning feed. Rumen fluid samples were taken for VFA and lactate analysis. […] First Sense Recorder). […] Rumen fluid samples (10 ml) were taken twice daily for measurement of VFA levels, molar ratios and lactate levels. These were collected (by manually removing a sample of rumen content with a small stainless […], filtering and transferring to a 10 ml polypropylene vial) just before acarbose was added to the rumen at both dosing times. The pH probes were removed for cleaning and recalibration immediately pre-morning feed. Results: The daily pH curves were used to calculate the period that rumen pH was below pH 5.5, and therefore indicative of chronic acidosis.

[4] = target: rumen fluid supernatant amylases; test: Rumen bacterial amylase assay, protocol 2 (amylose azure); details: read-out: Average IC50, rumen fluid amylase screen
[5] = test system: Salm. enteritidis; test: Minimum inhibitory concentrations in aerobes (agar dilution)
[6] = test system: E. faecium; test: as above
[7] = test system: E. faecalis; test: as above
[8] = test system: S. aureus; test: as above

CC1OC(OC2C(CO)OC(OC3C(CO)OC(O)C(O)C3O)C(O)C2O)C(O)C(O)C1NC1C=C(CO)C(O)C(O)C1O (stereo not drawn) [Acarbose, acarbose]
MIC ([1]; ATCC10418, E. coli ATCC 10418): > 128 µg/mL | MIC ([1]; E. coli E517): > 128 µg/mL | increase in mean daily pH ([2]; 0.2 mM): 0.7 units | proportional increase in butyrate production ([2]; 100 mg per vessel per day, treatment period vs control period (no treatment: 1%)): 113% | change in total VFA production ([2]; 100 mg per vessel per day, vs preceding control period (no treatment: −11%)): −15% | total VFA concentrations in rumen fluid ([3]; 13:00 samples, treatment vs control phase): little difference | VFA concentration in rumen fluid ([3]; 14:00 samples, during the treatment period): fell | percentage of propionate in rumen fluid ([3]; all sampling times, during the treatment period): lower | IC50 [4]: 2390 nM | MIC ([5]; Salm. enteritidis B1218): >128 µg/mL | MIC ([5]; Salm. enteritidis B1227): >128 µg/mL | MIC ([5]; Salm. enteritidis B1231): >128 µg/mL | MIC ([5]; Salm. enteritidis B1232): >128 µg/mL | MIC ([5]; Salm. enteritidis B1233): >128 µg/mL | MIC ([5]; Salm. enteritidis B1235): >128 µg/mL | MIC ([5]; Salm. enteritidis B1240): >128 µg/mL | MIC ([5]; Salmonella enterica, ENTERITIDIS): > 128 µg/mL | MIC ([6]; E. faecium 1.1.6): >128 µg/mL | MIC ([6]; E. faecium 1.2.4): >128 µg/mL | MIC ([6]; E. faecium 1.2.6): >128 µg/mL | MIC ([6]; E. faecium 3.1): >128 µg/mL | MIC ([6]; E. faecium 4.5): >128 µg/mL | MIC ([6]; E. faecium 5.4): >128 µg/mL | MIC ([6]; E. faecium 10.1): >128 µg/mL | MIC ([6]; E. faecium 28.6.7): >128 µg/mL | MIC ([6]; E. faecium 28.7.7): >128 µg/mL | MIC ([6]; Enterococcus faecium): > 128 µg/mL | MIC ([7]; E. faecalis 1.1.16): >128 µg/mL | MIC ([7]; E. faecalis 1.1.4): >128 µg/mL | MIC ([7]; E. faecalis 1.10.4): >128 µg/mL | MIC ([7]; E. faecalis 1.3.13): >128 µg/mL | MIC ([7]; E. faecalis 1.4.12): >128 µg/mL | MIC ([7]; E. faecalis 1.6.6): >128 µg/mL | MIC ([7]; E. faecalis 1.9.5): >128 µg/mL | MIC ([7]; E. faecalis 28.5.7): >128 µg/mL | MIC ([7]; E. faecalis 28.6.9): >128 µg/mL | MIC ([7]; Enterococcus faecalis): > 128 µg/mL | MIC ([8]; S. aureus 3.4): >128 µg/mL | MIC ([8]; S. aureus 3.5): >128 µg/mL | MIC ([8]; S. aureus 5.1): >128 µg/mL | MIC ([8]; S. aureus 6.1): >128 µg/mL | MIC ([8]; S. aureus 8.2): >128 µg/mL | MIC ([8]; S. aureus 8.3): >128 µg/mL | MIC ([8]; S. aureus 9.3): >128 µg/mL | MIC ([8]; S. aureus 10.3): >128 µg/mL | MIC ([8]; S. aureus 10.4): >128 µg/mL | MIC ([8]; Staphylococcus aureus): > 128 µg/mL | MIC ([8]; Staphylococcus aureus, NCTC6571): > 128 µg/mL
